From a melting point compilation (Tetko et al.; mined from patent text by program, amines drawn as free bases though some values may be those of a salt) come the findings set out here.

Bounds are passed on as bounds.

As a reminder, the melting point is the temperature of the solid-liquid transition.

`O=C(O)Cn1cc(Cc2nc3c(F)c(F)cc(F)c3s2)c2ccc(-c3ccccc3)cc21`: the melting point was in the range of 156 to 159 °C.

The molecule `CCOC(=O)c1nc(Cl)n2c1c(Cl)nc1ccccc12` displayed a melting point of 132 to 135 °C.

`COc1cc2c(Oc3ccc(Cl)cc3F)ncnc2cc1OCc1ccccc1` showed a melting point of 179 to 180 °C.

`CC(=O)Oc1ccc(C=CC(=O)C=Cc2ccc(OC(C)=O)cc2)cc1` came in with a melting point of 167 to 168 °C.

Consider `CC(=O)Nc1ccc(C(=O)c2cccnc2)cc1`, for which the melting point stood at 215 °C.

Molecule `CCOC(=O)C(=C1NCCCS1)[N+](=O)[O-]` gave a melting point of 100 to 102 °C.

Molecule `CC1(C)CN(c2cccc(-c3cnc4[nH]cc(C(=O)C(C)(C)C)c4n3)c2)C1` gave a melting point of 227 to 229 °C.

`O=C(NC1(C(=O)O)Cc2ccc(Br)cc2C1)c1cn2cc(-c3ccc(Cl)cc3)ccc2n1` (configuration not stated) came in with a melting point of 328 °C.

The molecule `O=S(Cc1ccccc1)c1nc2cnccc2[nH]1` (configuration not stated) gave a melting point of 190 to 193 °C.

Molecule `CCNC(=O)Oc1cccc(CCNC(=O)/C=C/c2cccnc2)c1` came in with a melting point of 130 °C.

For the molecule `COc1ccc2cc(-c3ncn[nH]3)ccc2n1`, the melting point fell in the range of 198 to 200 °C.

`CCOC(=O)C1=C(CO)NC(C)=C(C(=O)OCCOCc2ccccc2)C1c1ccccc1[N+](=O)[O-]` (configuration not stated) returned a melting point of 96 to 97 °C.

`Cc1cc(S(N)(=O)=O)cs1` showed a melting point of 102 to 104 °C.

The molecule `N#Cc1ccc(-c2cc(Oc3cccc4ccc(N)nc34)ncn2)cc1` displayed a melting point of 234 to 236 °C.

Molecule `CC(=O)Cc1ccc(O)cn1` gave a melting point of 119 to 120 °C.

The molecule `COc1ccc(N2CCOCC2)c2sc(NC(=O)N(C)C3CCC(C(F)(F)F)CC3)nc12` (configuration not stated) displayed a melting point of 157 to 167 °C.

Turning to `CCCCOc1cc(C(=O)O)cc(N)c1-c1ccccc1`, the melting point fell in the range of 122 to 124 °C.

Turning to `CCc1nc2cc(COC)c(Cl)cc2n1-c1ccc(CCOC(=O)NS(=O)(=O)c2ccc(C)cc2)cc1`, the melting point was found to be 174 °C.

Molecule `Nc1nc(-c2cc(Cl)ccc2Cl)nc(N2CCCCC2C(=O)O)n1` (configuration not stated) came in with a melting point of 237 to 240 °C.

On to `COc1cccc(-c2cc3[nH]nc(I)c3s2)c1`, for which the melting point was 159 to 163 °C.

Molecule `C=CCNC(=O)[C@H]1NCSC1(C)C` gave a melting point of 45 to 47 °C.

In turn, `O=C(Nc1n[nH]c(=S)s1)NC(Cc1ccccc1)C(=O)NCc1ccccc1` (configuration not stated) gave a melting point of 167 to 170 °C.

For the molecule `O=C(Nc1n[nH]c(=S)s1)N[C@@H](Cc1ccccc1)C(=O)N1CCN(c2ncccn2)CC1`, the melting point was 235 to 237 °C.

Molecule `CC(C)C(=O)c1ccc(N2CCOCC2)cc1` showed a melting point of 75 to 77 °C.

The molecule `O=C1NC(=S)SC1=Cc1ccc(C(F)(F)F)o1` came in with a melting point of 174 °C.

The molecule `CCC(=O)N1CCC(NC(=O)Nc2ccc(C(F)(F)F)cc2)CC1` displayed a melting point of 224 to 228 °C.

With `COc1ccccc1NC(=O)Nc1nc(Oc2ccc3ccccc3c2)nc(N(CCC(=O)O)Cc2ccc(F)cc2)n1`, the melting point fell in the range of 211 to 217 °C.

As to `CCOc1cc(-n2c(=O)cc(C(F)(F)F)[nH]c2=O)c(F)cc1Br`, the melting point was 161 to 162 °C.

Molecule `C#CCN1C(=O)C2CC3CC(C2)CC1C3` registered a melting point of 168 to 170 °C.

On to `CC1(C)Cc2cccc(Oc3ccc(NC(=O)NC(=O)c4c(F)cccc4F)cc3Cl)c2O1`, for which the melting point worked out at 171 °C.

`Fc1ccc(-c2ncn(CCCN3CCOCC3)c2-c2ccnc(Cl)c2)cc1`: the melting point lay within 97 to 97.5 °C.

In turn, `COc1c(Nc2ccccc2)ccc2ccccc12` showed a melting point of 43 to 45 °C.

Molecule `CNC(=S)C1(c2ccc(Cl)c(Cl)c2)CCCCS1` (configuration not stated) gave a melting point of 116 to 117 °C.

`CCCCCCCCOc1ccc(CCC(N)(CO)CCC)cc1` (configuration not stated) returned a melting point of 43 to 47 °C.

`CCCCCCCCCCCCCCCC(=O)Nc1ccc(O)c(C(C)=O)c1` returned a melting point of 120 to 122 °C.

Regarding `CCOC(=O)C(=O)Nc1ccc(Br)c2cccnc12`, the melting point was 152 °C.

In turn, `O=[N+]([O-])c1ccc2c(c1)N[C@@H]1c3cc([N+](=O)[O-])ccc3C[C@H]21` (relative stereo) came in with a melting point of 174 to 176 °C.

`CC(C)N(C(=O)n1oc(=O)[nH]c1=O)c1ccc(F)cc1` yielded a melting point of 94 to 95 °C.

Regarding `CCS(=O)(=O)c1nnc(N(C(C)=O)C(=O)N(C)C)s1`, the melting point was determined as 145 °C.

Molecule `CN(C)c1nc2cc(N)ccn2n1` registered a melting point of 236 to 238 °C.

As for `COC(=O)c1ccc(CC(C)NCC(O)c2ccccc2)c(OC)c1` (configuration not stated), the melting point was in the range of 102 to 104 °C.

In turn, `Cc1c(C(F)(F)F)cnn(-c2cc(OCC3CCC3)c(Cl)cc2F)c1=O` yielded a melting point of 85.3 °C.

For `COc1ccc2c(c1)C(=O)C(=O)C1=C2OC2(CCN(CC(O)Cc3ccccc3)CC2)CS1` (configuration not stated), the melting point is 146 to 147 °C.

Consider `COc1ccc(N2C(=O)[C@H](O)[C@H]2c2ccco2)cc1`, for which the melting point was in the range of 149 to 152 °C.

Regarding `CS(=O)(=O)OCC1(c2ccc(Cl)cc2)CCC1`, the melting point lay in the range of 66 to 70 °C.

Take `COc1ccc2c(c1OC(C)=O)NC(OC)C1CCCN1C2=O` (configuration not stated): the melting point was 143 to 145 °C.

With `COc1ccc2c(c1)CCc1cn[nH]c1-2`, the melting point fell in the range of 162 to 164 °C.

`Cn1c([N+](=O)[O-])cnc1C=NN1CCN(CCN2CCOCC2)C1=O` displayed a melting point of 173 °C.

On to `COCCc1nc2c(N)nc3cc(-c4ccccc4)ccc3c2n1CCCN1CCCC1=O`, for which the melting point was in the range of 187 to 191 °C.

`CCNc1nc(C(C)(C)C)nn1-c1c(Cl)cc(C(F)(F)F)cc1Cl` yielded a melting point of 67 to 70 °C.

`Nc1cc(C2=NOC(c3cc(Cl)cc(Cl)c3)(C(F)(F)F)C2)ccc1-n1cncn1` (configuration not stated) had a melting point of 244 to 246 °C.

Molecule `COc1ccc(Nc2nccc(-c3ccncc3)n2)cc1` came in with a melting point of 174 to 175 °C.

For the molecule `CCOC(=O)c1cc2cc(Cl)ccc2n1C`, the melting point lay within 81.5 to 82 °C.

`COc1ccc(C=CCCCCCC(=O)O)cc1` displayed a melting point of 42 to 43 °C.

For the molecule `CCOC(=O)c1ncc2[nH]c3ccc(C(=O)OCc4ccccc4)cc3c2c1CC`, the melting point was in the range of 212 to 215 °C.

Consider `NC(c1ccncc1)C1CCN(C2CCC(O)(CC(=O)O)CC2)CC1` (configuration not stated), for which the melting point was found to be 266 °C.

The molecule `Cc1ccccc1NS(=O)(=O)c1ccc(NC2=C(Cl)C(=O)c3ccccc3C2=O)cc1` registered a melting point of 265 to 266 °C.

`Cc1cccc2c(C(=O)O)cn(C)c12` gave a melting point of 243 °C.

With `O=S1(=O)N=C(NCCCCc2ccccc2)Nc2cc(Cl)sc21`, the melting point fell in the range of 201 to 205 °C.

Turning to `CCCCCC1COc2cc(C3COC(C4COc5c(cc(F)c(C#N)c5F)C4)OC3)c(F)cc2C1` (configuration not stated), the melting point came to 111 °C.

The molecule `COc1cc2[nH]c(=O)n(CCCS)c(=O)c2cc1OC` yielded a melting point of 236 °C.

With `CC(C)P1(=O)c2ccccc2CN1C(C)(C)C` (configuration not stated), the melting point lay within 67 to 70 °C.

With `Nc1cc(C(=O)O)cc(SCc2ccccn2)c1-c1ccccc1`, the melting point lay within 210 to 211 °C.

Consider `CC(C)(C)NC1=NS(=O)(=O)c2sc(Cl)cc2N1`, for which the melting point was in the range of 368 to 372 °C.

With `CCC(C(C)=CC(CNC(=O)c1ccc(N)nc1)=NO)[N+](=O)[O-]` (configuration not stated), the melting point was in the range of 190 to 191 °C.

In turn, `O=C(O)c1ccc2c(c1)C=CC(=CCl)CO2` yielded a melting point of over 260 °C.

Turning to `Cc1[nH]ccc(=O)c1OCc1ccccc1`, the melting point was in the range of 162 to 164 °C.
